According to US12612408B2, “Pyrazolone-fused pyrimidine compound, preparation method for same and applications thereof” (SHANGHAI PHARMACEUTICALS HOLDING CO., LTD., priority 2019, dated 2026):

Assays:
[1] = Bioavailability test in vivo in cynomolgus monkey (pharmacokinetics, IV and PO); conditions: cynomolgus monkeys
Experimental: Twelve male Non-Naïve cynomolgus monkeys were purchased from GuangxiGuidong Primate Development Experiment Co. LTD.
(§1) 54.31 mg of I-8-1 was accurately weighed, and 1.08 mL of DMSO was added, then the mixture was vortexed for 1 min, sonicated for 15 min, and then diluted to 36 mL according to the ratio of 10% HP-β-cyclodextrin (prepared by normal saline): PEG=8:2, vortexed for 1 min. A colorless clarified administration solution (the pH value was about 7) at a concentration of 1.5 mg/mL was prepared for intravenous administration to Group 1.
300.9 mg of I-8-1 was accurately weighed, and 75 mL of 0.5% CMC-Na was added, the mixture was fully ground and stirred for 5 min. A white suspension (the pH value was about 7) at a concentration of 4 mg/mL was prepared for oral administration to Group 2.
as §1, with “54.05 mg” for “54.31 mg”, “of AZD1775” for “of I-8-1”, “then he” for “then the”, “of 10%-D-cyclodextrin” for “of 10% HP-β-cyclodextrin”, “A yellow” for “A colorless”, “Group 3.” for “Group 1.”
300.7 mg of AZD1775 was accurately weighed, and 75 mL of 0.5% CMC-Na was added, the mixture was fully ground and stirred for 5 min. A yellow suspension (the pH value was about 7) at a concentration of 4 mg/mL was prepared for oral administration to Group 4.
Before administration, all animals were fasted overnight (approximately 12 hours) and fed as required and administered according to the table below.
Intravenous group: before administration (0 h), 0.033 h, 0.083 h, 0.25 h, 0.5 h, 1 h, 1.5 h, 2 h, 4 h, 6 h, 8 h, 12 h, 24 h after administration.
Oral group: before administration (0 h), 0.083 h, 0.25 h, 0.5 h, […], 2 h, 4 h, 6 h, 8 h, 12 h, 24 h after administration.
Blood samples were collected by puncture through lower limb vein or other suitable blood vessels at 1 mL/time point (3 mL of blood samples were collected from each animal before administration), anticoagulated with heparin sodium, and placed on ice after collection. Plasma was separated at 2200 g/min, 10 min, 2-8° C., plasma samples were stored in a −80° C. refrigerator before being transferred to the client. Plasma samples are stored in dry ice and transferred to the client. The final treatment of the sample will be recorded in the experimental record.
300 μL of acetonitrile was added to 50 μL of plasma samples containing internal standard (Propranolol, 25 ng/mL) to precipitate protein, vortexed for 10 min, centrifuged at 6000 g for 10 min, after I-8-1&AZD1775 intravenous injection group was diluted 10 times with internal standard acetonitrile (Propranolol, 25 ng/mL) at the time point before 1 hour, the remaining supernatant was not diluted, centrifuged again at 6000 g at 4° C. for 10 min, and the supernatant was taken and injected into a 96 well plate.
(§2) Dose; peak concentration: Cmax; peak time: Tmax; area under the drug-time curve from AUClast 0 to time t; half-life: T1/2; mean retention time: MRT; clearance: Cl; apparent distribution volume: Vz; steady-state distributed volume: Vss; absolute bioavailability: F.
The pharmacokinetic parameters of the compound in cynomolgus monkeys after intravenous injection or intragastric administration were shown in Table 6 below.

[2] = Bioavailability test in vivo in mice (pharmacokinetics, iv and intragastric); set-up: species or system ICR mice
Experimental: 404.6 μL of DMSO was added to the compound powder of the present disclosure until the compound was completely dissolved, and 50 mg/mL mother liquor was prepared in a clarified state.
The compound of the present disclosure: 24 μL of mother liquor was accurately measured, diluted to 4 mL according to the ratio of 0.9% normal saline:PEG400=8:2, the preparation concentration was 0.3 mg/mL, the solution was in a clarified state, and it was used as intravenous administration solution. In addition, 80 μL mother liquor was accurately measured, and 0.5% CMC-Na was added to 8 mL to grind it into a uniform suspension with a concentration of 0.5 mg/mL, which was used as intragastric administration solution.
(§3) Intravenous group: 24 ICR mice, 20±2 g, were given the intravenous administration solution of the compound of the present disclosure by intravenous injection, with the volume of 10 mL/kg, with the dose of 3 mg/kg, the blood was taken from the fundus venous plexus of mice, 2, 5, 15, 30, 60, 90, 120, 240, 360, 480, 600 and 1440 minutes before and after administration.
as §3, with “Intragastric group:” for “Intravenous group:”, “the intragastric” for “the intravenous”, “by intragastric” for “by intravenous”, “of 20” for “of 10”, “of 10” for “of 3”, “mice,” for “mice, 2,”
Blood sample was centrifuged at 8000 rpm for 5 min, and the plasma was stored in a centrifuge tube at −20° C. for later use.
300 μL of acetonitrile containing internal standard (Propranolol, 25 ng/mL) was added to 50 μL of plasma samples to precipitate protein, vortexed for 10 min, 6000 g, 4° C., centrifuged for 10 min; the supernatant before intravenous injection for 1 hour was taken, diluted 10 times with acetonitrile containing internal standard, the rest supernatant was kept undiluted, centrifuged for 10 min again at 6000 g, 4° C., and the supernatant was taken and then injected into a 96-well plate.
as §2
The pharmacokinetic parameters of the compound in mice after intravenous injection or intragastric administration were shown in Table 4 and Table 5 below.

[3] = male, cynomolgus monkey, plasma, iv, 3 mg/kg
[4] = male, cynomolgus monkey, plasma, po, 20 mg/kg, fasted
[5] = ICR, mouse, plasma, iv, 3 mg/kg
[6] = ICR, mouse, plasma, po (intragastric), 10 mg/kg

- AUCextra ([1]; iv, 3 mg/kg): 16.11 ± 9.34 (h)*(ng/mL)
- AUClast ([1]; iv, 3 mg/kg): 957.6 ± 126.3 (h)*(ng/mL)
- AUCtot ([1]; iv, 3 mg/kg): 973.8 ± 131.4 (h)*(ng/mL)
- thalf ([1]; iv, 3 mg/kg): 2.05 ± 1.24 h
- AUCextra ([1]; po, 20 mg/kg, fasted): 187.03 ± 166.00 (h)*(ng/mL)
- AUClast ([1]; po, 20 mg/kg, fasted): 6548 ± 3043 (h)*(ng/mL)
- AUCtot ([1]; po, 20 mg/kg, fasted): 6735 ± 3201 (h)*(ng/mL)
- thalf ([1]; po, 20 mg/kg, fasted): 3.71 ± 0.72 h
- Vd ([1]; male, cynomolgus monkey, plasma, iv, 3 mg/kg, iv, 3 mg/kg, read-out: Vss): 9.67 ± 1.32 L/kg
- Vd ([1]; male, cynomolgus monkey, plasma, iv, 3 mg/kg, iv, 3 mg/kg, read-out: Vz): 8.78 ± 4.22 L/kg
- Cmax [1, 3]: 838 ± 190 ng/mL
- MRT [1, 3]: 3.17 ± 0.82 h
- Tmax [1, 3]: 0.03 h
- clearance [1, 3]: 52 mL/min/kg
- bioavailability ([1]; male, cynomolgus monkey, plasma, po 20 mg/kg vs iv 3 mg/kg, read-out: BA (absolute bioavailability)): 103%
- Cmax [1, 4]: 721 ± 260 ng/mL
- MRT [1, 4]: 7.91 ± 2 h
- Tmax [1, 4]: 4.5 ± 2.6 h
- Cmax [2, 5]: 644 ± 132 ng/mL
- MRT [2, 5]: 1.11 ± 0.08 h
- Tmax [2, 5]: 0.03 h
- clearance [2, 5]: 155 mL/min/kg
- half-life [2, 5]: 1.22 ± 0.1 h
- Vd ([2]; ICR, mouse, plasma, iv, 3 mg/kg, iv, 3 mg/kg, read-out: Vss): 10.3 ± 0.86 L/kg
- Vd ([2]; ICR, mouse, plasma, iv, 3 mg/kg, iv, 3 mg/kg, read-out: Vz): 16.3 ± 2.48 L/kg
- bioavailability ([2]; ICR, mouse, plasma, po 10 mg/kg vs iv 3 mg/kg, read-out: F (absolute bioavailability)): 60.3%
- Cmax [2, 6]: 58.1 ± 7.09 ng/mL
- MRT [2, 6]: 3.47 ± 1.22 h
- Tmax [2, 6]: 1.67 ± 0.29 h
- half-life [2, 6]: 1.57 ± 0.39 h
- AUClast ([2]; iv, 3 mg/kg): 317.5 ± 34.41 (h) (ng/mL)
- AUClast ([2]; po (intragastric), 10 mg/kg): 637.9 ± 302.3 (h) (ng/mL)
SMILES: C=CCn1c(=O)c2cnc(Nc3ccc(C4CCC(N5CCC5)CC4)cc3)nc2n1-c1cccc(C(C)(C)O)n1 (single isomer, unassigned) [Compound I-8-1]
